# Source: PubChem BioAssay AID270 (DTP/NCI, 2004)
# Where “and” joins values, the source holds several entries; their conditions need not be identical. Equal entries are not always repeated. Results filed as inconclusive are left out.
# Test system: BDF1 mice, s.c. Lewis lung carcinoma, T/C %
# Assay: NCI In Vivo Anticancer Drug Screen. Data for tumor model Lewis Lung Carcinoma (subcutaneous) in B6D2F1 (BDF1) mice
# Summary of the method: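 Tumor-bearing mice were treated with test compound, and either survival or tumor size was recorded. Values are the treated-group measurement divided by that of the vehicle-treated control group.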
# [1] = endpoint: mean tumor weight, dose: 100.0 mg/kg/injection, schedule: Q01DX011 (ip), vehicle: saline, higher = larger tumour
structure (smiles),measurement,setting,value
COC1N(C2CC(O)C(CO)O2)C(=O)NC(=O)C1(F)Br (configuration not stated),T/C,"endpoint: mean tumor weight, dose: 8.8 mg/kg/injection, schedule: Q01DX011 (ip), vehicle: saline, higher = larger tumour",45 % of control and 51 % of control and 55 % of control
same,T/C,"endpoint: mean tumor weight, dose: 13.3 mg/kg/injection, schedule: Q01DX011 (ip), vehicle: saline, higher = larger tumour",36 % of control and 56 % of control and 57 % of control
same,T/C,"endpoint: mean tumor weight, dose: 20.0 mg/kg/injection, schedule: Q01DX011 (ip), vehicle: saline, higher = larger tumour",13 % of control and 22 % of control
same,T/C,"endpoint: median survival time, dose: 1.56 mg/kg/injection, schedule: Q01DX009 (ip), vehicle: saline, higher = longer survival",110 % of control and 117 % of control
same,T/C,"endpoint: median survival time, dose: 3.12 mg/kg/injection, schedule: Q01DX009 (ip), vehicle: saline, higher = longer survival",110 % of control
same,T/C,"endpoint: median survival time, dose: 3.13 mg/kg/injection, schedule: Q01DX009 (ip), vehicle: saline, higher = longer survival",113 % of control
same,T/C,"endpoint: median survival time, dose: 6.25 mg/kg/injection, schedule: Q01DX009 (ip), vehicle: saline, higher = longer survival",109 % of control and 277 % of control
same,T/C,"endpoint: median survival time, dose: 12.5 mg/kg/injection, schedule: Q01DX009 (ip), vehicle: saline, higher = longer survival",279 % of control
C1CN1c1nc(N2CC2)nc(N2CC2)n1,T/C,"endpoint: mean tumor weight, dose: 0.25 mg/kg/injection, schedule: Q01DX011 (ip), vehicle: saline, higher = larger tumour",72 % of control and 80 % of control
same,T/C,"endpoint: mean tumor weight, dose: 0.5 mg/kg/injection, schedule: Q01DX011 (ip), vehicle: saline, higher = larger tumour",44 % of control and 46 % of control
same,T/C,"endpoint: median survival time, dose: 0.05 mg/kg/injection, schedule: Q01DX009 (ip), vehicle: saline, higher = longer survival",96 % of control and 113 % of control
same,T/C,"endpoint: median survival time, dose: 0.1 mg/kg/injection, schedule: Q01DX009 (ip), vehicle: saline, higher = longer survival",92 % of control and 106 % of control
same,T/C,"endpoint: median survival time, dose: 0.12 mg/kg/injection, schedule: Q01DX009 (ip), vehicle: saline, higher = longer survival",118 % of control
same,T/C,"endpoint: median survival time, dose: 0.13 mg/kg/injection, schedule: Q01DX009 (ip), vehicle: saline, higher = longer survival",90 % of control
same,T/C,"endpoint: median survival time, dose: 0.2 mg/kg/injection, schedule: Q01DX009 (ip), vehicle: saline, higher = longer survival",100 % of control
same,T/C,"endpoint: median survival time, dose: 0.4 mg/kg/injection, schedule: Q01DX009 (ip), vehicle: saline, higher = longer survival",89 % of control and 104 % of control
same,T/C,"endpoint: median survival time, dose: 0.5 mg/kg/injection, schedule: Q01DX009 (ip), vehicle: saline with Tween-80, higher = longer survival",123 % of control
same,T/C,"endpoint: median survival time, dose: 0.5 mg/kg/injection, schedule: Q08DX002 (ip), vehicle: saline with Tween-80, higher = longer survival",102 % of control
same,T/C,"endpoint: median survival time, dose: 0.5 mg/kg/injection, schedule: Q08DX002 (ip), vehicle: saline, higher = longer survival",92 % of control and 111 % of control and 123 % of control
same,T/C,"endpoint: median survival time, dose: 1.0 mg/kg/injection, schedule: Q08DX002 (ip), vehicle: saline with Tween-80, higher = longer survival",119 % of control
same,T/C,"endpoint: median survival time, dose: 2.0 mg/kg/injection, schedule: Q08DX002 (ip), vehicle: saline with Tween-80, higher = longer survival",115 % of control
same,T/C,"endpoint: median survival time, dose: 2.0 mg/kg/injection, schedule: Q08DX002 (ip), vehicle: saline, higher = longer survival",155 % of control
same,T/C,"endpoint: median survival time, dose: 4.0 mg/kg/injection, schedule: Q08DX002 (ip), vehicle: saline, higher = longer survival",93 % of control
same,T/C,"endpoint: median survival time, dose: 250.0 micrograms/kg/injection, schedule: Q01DX009 (ip), vehicle: saline, higher = longer survival",172 % of control
same,T/C,"endpoint: median survival time, dose: 500.0 micrograms/kg/injection, schedule: Q01DX009 (ip), vehicle: saline, higher = longer survival",110 % of control
same,T/C,"endpoint: median tumor weight (est.), dose: 0.12 mg/kg/injection, schedule: Q01DX009 (ip), vehicle: saline with Tween-80, higher = larger tumour",95 % of control
same,T/C,"endpoint: median tumor weight (est.), dose: 0.25 mg/kg/injection, schedule: Q01DX009 (ip), vehicle: saline with Tween-80, higher = larger tumour",81 % of control
same,T/C,"endpoint: median tumor weight (est.), dose: 0.5 mg/kg/injection, schedule: Q01DX009 (ip), vehicle: saline with Tween-80, higher = larger tumour",58 % of control
same,T/C,"endpoint: median tumor weight (est.), dose: 0.5 mg/kg/injection, schedule: Q08DX002 (ip), vehicle: saline with Tween-80, higher = larger tumour",97 % of control
same,T/C,"endpoint: median tumor weight (est.), dose: 1.0 mg/kg/injection, schedule: Q08DX002 (ip), vehicle: saline with Tween-80, higher = larger tumour",86 % of control
same,T/C,"endpoint: median tumor weight (est.), dose: 2.0 mg/kg/injection, schedule: Q08DX002 (ip), vehicle: saline with Tween-80, higher = larger tumour",49 % of control
C[C@H]1CC[C@@]2(NC1)O[C@H]1C[C@H]3[C@@H]4CC[C@H]5C[C@@H](O)CC[C@]5(C)[C@H]4CC[C@]3(C)[C@H]1[C@@H]2C,T/C,"endpoint: mean tumor weight, dose: 3.13 mg/kg/injection, schedule: Q01DX011 (sc), vehicle: steriod suspending solution, higher = larger tumour",83 % of control
same,T/C,"endpoint: mean tumor weight, dose: 6.25 mg/kg/injection, schedule: Q01DX011 (sc), vehicle: steriod suspending solution, higher = larger tumour",108 % of control
same,T/C,"endpoint: mean tumor weight, dose: 12.5 mg/kg/injection, schedule: Q01DX011 (sc), vehicle: steriod suspending solution, higher = larger tumour",96 % of control
same,T/C,"endpoint: mean tumor weight, dose: 25.0 mg/kg/injection, schedule: Q01DX011 (sc), vehicle: steriod suspending solution, higher = larger tumour",96 % of control and 105 % of control
same,T/C,"endpoint: mean tumor weight, dose: 50.0 mg/kg/injection, schedule: Q01DX011 (sc), vehicle: steriod suspending solution, higher = larger tumour",119 % of control
same,T/C,"endpoint: mean tumor weight, dose: 100.0 mg/kg/injection, schedule: Q01DX011 (sc), vehicle: steriod suspending solution, higher = larger tumour",117 % of control
same,T/C,"endpoint: mean tumor weight, dose: 200.0 mg/kg/injection, schedule: Q01DX011 (sc), vehicle: steriod suspending solution, higher = larger tumour",110 % of control
same,T/C,"endpoint: mean tumor weight, dose: 400.0 mg/kg/injection, schedule: Q01DX011 (sc), vehicle: steriod suspending solution, higher = larger tumour",93 % of control
Nc1ncnc2c1ncn2C1OC(CO)C(O)C1O (configuration not stated),T/C,"endpoint: mean tumor weight, dose: 50.0 mg/kg/injection, schedule: Q01DX011 (ip), vehicle: saline, higher = larger tumour",108 % of control
same,T/C,[1],103 % of control
same,T/C,"endpoint: mean tumor weight, dose: 200.0 mg/kg/injection, schedule: Q01DX011 (ip), vehicle: saline, higher = larger tumour",102 % of control
same,T/C,"endpoint: mean tumor weight, dose: 400.0 mg/kg/injection, schedule: Q01DX011 (ip), vehicle: saline, higher = larger tumour",93 % of control
same,T/C,"endpoint: median survival time, dose: 70.0 mg/kg/injection, schedule: Q03HX024 (ip), vehicle: saline with Tween-80, higher = longer survival",94 % of control
same,T/C,"endpoint: median survival time, dose: 80.0 mg/kg/injection, schedule: Q03HX024 (ip), vehicle: saline with Tween-80, higher = longer survival",98 % of control
same,T/C,"endpoint: median survival time, dose: 160.0 mg/kg/injection, schedule: Q03HX024 (ip), vehicle: saline with Tween-80, higher = longer survival",104 % of control
same,T/C,"endpoint: median survival time, dose: 240.0 mg/kg/injection, schedule: Q03HX024 (ip), vehicle: saline with Tween-80, higher = longer survival",86 % of control
S=c1nc[nH]c2nc[nH]c12,T/C,"endpoint: mean tumor weight, dose: 5.0 mg/kg/injection, schedule: Q01DX011 (ip), vehicle: alkali diluted with saline, higher = larger tumour",58 % of control
same,T/C,"endpoint: mean tumor weight, dose: 10.0 mg/kg/injection, schedule: Q01DX011 (ip), vehicle: alkali diluted with saline, higher = larger tumour",60 % of control
same,T/C,"endpoint: mean tumor weight, dose: 12.5 mg/kg/injection, schedule: Q01DX011 (ip), vehicle: alkali diluted with saline, higher = larger tumour",62 % of control
same,T/C,"endpoint: mean tumor weight, dose: 20.0 mg/kg/injection, schedule: Q01DX011 (ip), vehicle: alkali diluted with saline, higher = larger tumour",51 % of control
same,T/C,"endpoint: mean tumor weight, dose: 25.0 mg/kg/injection, schedule: Q01DX011 (ip), vehicle: alkali diluted with saline, higher = larger tumour",66 % of control
same,T/C,"endpoint: mean tumor weight, dose: 50.0 mg/kg/injection, schedule: Q01DX011 (ip), vehicle: alkali diluted with saline, higher = larger tumour",62 % of control
same,T/C,"endpoint: median survival time, dose: 0.3 mg/kg/injection, schedule: Q01DX000 (ip), vehicle: alkali diluted with saline, higher = longer survival",106 % of control
same,T/C,"endpoint: median survival time, dose: 1.0 mg/kg/injection, schedule: Q01DX009 (ip), vehicle: saline, higher = longer survival",106 % of control
same,T/C,"endpoint: median survival time, dose: 2.0 mg/kg/injection, schedule: Q01DX009 (ip), vehicle: saline, higher = longer survival",121 % of control
same,T/C,"endpoint: median survival time, dose: 3.0 mg/kg/injection, schedule: Q01DX000 (ip), vehicle: alkali diluted with saline, higher = longer survival",101 % of control
same,T/C,"endpoint: median survival time, dose: 4.0 mg/kg/injection, schedule: Q01DX009 (ip), vehicle: saline, higher = longer survival",117 % of control
same,T/C,"endpoint: median survival time, dose: 8.0 mg/kg/injection, schedule: Q01DX009 (ip), vehicle: saline, higher = longer survival",121 % of control
same,T/C,"endpoint: median survival time, dose: 10.0 mg/kg/injection, schedule: Q01DX011 (ip), vehicle: alkali diluted with saline, higher = longer survival",98 % of control
same,T/C,"endpoint: median survival time, dose: 15.0 mg/kg/injection, schedule: Q01DX009 (ip), vehicle: saline with Tween-80, higher = longer survival",108 % of control
same,T/C,"endpoint: median survival time, dose: 20.0 mg/kg/injection, schedule: Q01DX011 (ip), vehicle: alkali diluted with saline, higher = longer survival",91 % of control
same,T/C,"endpoint: median survival time, dose: 30.0 mg/kg/injection, schedule: Q01DX000 (ip), vehicle: alkali diluted with saline, higher = longer survival",97 % of control
same,T/C,"endpoint: median survival time, dose: 30.0 mg/kg/injection, schedule: Q01DX009 (ip), vehicle: Klucel (hydroxypropylcellulose) (HPC), higher = longer survival",104 % of control
same,T/C,"endpoint: median survival time, dose: 40.0 mg/kg/injection, schedule: Q01DX011 (ip), vehicle: alkali diluted with saline, higher = longer survival",89 % of control
same,T/C,"endpoint: median tumor weight (est.), dose: 15.0 mg/kg/injection, schedule: Q01DX009 (ip), vehicle: saline with Tween-80, higher = larger tumour",79 % of control
same,T/C,"endpoint: median tumor weight (est.), dose: 30.0 mg/kg/injection, schedule: Q01DX009 (ip), vehicle: saline with Tween-80, higher = larger tumour",72 % of control
same,T/C,"endpoint: median tumor weight (est.), dose: 35.0 mg/kg/injection, schedule: Q01DX011 (ip), vehicle: alkali diluted with saline, higher = larger tumour",44 % of control
same,T/C,"endpoint: median tumor weight (est.), dose: 51.0 mg/kg/injection, schedule: Q01DX011 (ip), vehicle: alkali diluted with saline, higher = larger tumour",38 % of control
same,T/C,"endpoint: median tumor weight (est.), dose: 80.0 mg/kg/injection, schedule: Q01DX011 (ip), vehicle: alkali diluted with saline, higher = larger tumour",70 % of control and 75 % of control and 93 % of control
NC(=O)c1ncn(C2OC(CO)C(O)C2O)n1 (configuration not stated),T/C,"endpoint: median survival time, dose: 20.0 mg/kg/injection, schedule: Q01DX009 (ip), vehicle: saline, higher = longer survival",100 % of control
same,T/C,"endpoint: median survival time, dose: 40.0 mg/kg/injection, schedule: Q01DX009 (ip), vehicle: saline, higher = longer survival",93 % of control and 107 % of control
same,T/C,"endpoint: median survival time, dose: 80.0 mg/kg/injection, schedule: Q01DX009 (ip), vehicle: saline, higher = longer survival",97 % of control and 107 % of control
same,T/C,"endpoint: median survival time, dose: 160.0 mg/kg/injection, schedule: Q01DX009 (ip), vehicle: saline, higher = longer survival",118 % of control
C=CC(=O)NCNC(=O)C=C,T/C,"endpoint: mean tumor weight, dose: 44.0 mg/kg/injection, schedule: Q01DX011 (ip), vehicle: saline, higher = larger tumour",101 % of control
same,T/C,"endpoint: mean tumor weight, dose: 66.0 mg/kg/injection, schedule: Q01DX011 (ip), vehicle: saline, higher = larger tumour",48 % of control
same,T/C,[1],56 % of control
